Holding throughout (assay): Bacterial growth minimal inhibitory concentration (broth microdilution, CLSI M7-A7)
Common to all, as to type: cell-based

Assay [1] relates to Enterococcus faecium A949. As to conditions: multiply-resistant strain (in particular quinolone-resistant); for MIC for E. faecium A949: cation-adjusted Mueller-Hinton Broth; for MIC: Enterococcus faecium, A949, cation-adjusted Mueller-Hinton Broth, read-out: MIC for E. faecium A949. Here is the method: (§1) Minimal Inhibitory Concentrations (MICs; mg/L) were determined in cation-adjusted Mueller-Hinton Broth by a microdilution method following the description given in “Methods for Dilution Antimicrobial Susceptibility Tests for Bacteria that Grow Aerobically”, Approved standard, 7th ed., Clinical and Laboratory Standards Institute (CLSI) Document M7-A7, Wayne, Pa., USA (2006).
(§2) All Example compounds were tested against several Gram positive and Gram negative bacteria. […] Staphylococcus aureus A798, Enterococcus faecium A949 and Acinetobacter baumannii T6474 are multiply-resistant strains (in particular quinolone-resistant), while Moraxella catarrhalis A894 is a quinolone-sensitive strain and Staphylococcus aureus ATCC29213 is a methicillin-sensitive and quinolone-sensitive strain.

The subject of assay [2] is Moraxella catarrhalis A894. To be noted: quinolone-sensitive strain; for MIC for M. catarrhalis A894: cation-adjusted Mueller-Hinton Broth; for MIC: Moraxella catarrhalis, A894, cation-adjusted Mueller-Hinton Broth. Here is the method:
as §1, §2

The test system of assay [3] is Staphylococcus aureus ATCC29213. To be noted: methicillin-sensitive and quinolone-sensitive strain; for MIC for S. aureus ATCC29213: cation-adjusted Mueller-Hinton Broth; for MIC: Staphylococcus aureus, ATCC29213, cation-adjusted Mueller-Hinton Broth, read-out: MIC for S. aureus ATCC29213. Here is the method:
as §1, §2

Assay [4] relates to Staphylococcus aureus A798. As to conditions: multiply-resistant strain (in particular quinolone-resistant); for MIC for S. aureus A798: cation-adjusted Mueller-Hinton Broth; for MIC: Staphylococcus aureus, A798, cation-adjusted Mueller-Hinton Broth, read-out: MIC for S. aureus A798. On the procedure:
as §1, §2

Assay [5] deals with Acinetobacter baumannii T6474. To be noted: multiply-resistant strain (in particular quinolone-resistant); for MIC for A. baumannii T6474: cation-adjusted Mueller-Hinton Broth; for MIC: Acinetobacter baumannii, T6474, cation-adjusted Mueller-Hinton Broth. On the procedure:
as §1, §2

Converted amounts (≈) assume the structure as drawn.

Turning to “6-(5-{2-[(3′-methoxy-biphenyl-3-ylmethyl)-amino]-ethyl}-2-oxo-oxazol-3-yl)-4H-pyrido[3,2-b][1,4]oxazin-3-one [Example 34]”, the “MIC for E. faecium A949” value in assay [1] was determined as 1 µg/mL. Further, the “MIC for M. catarrhalis A894” value in assay [2] is reported as “≦0.016 mg/L”. Further, the “MIC for S. aureus ATCC29213” value in assay [3] was 0.125 µg/mL. In assay [4], the “MIC for S. aureus A798” value came to 0.125 µg/mL. Moreover, the “MIC for A. baumannii T6474” value in assay [5] turned out to be 0.25 µg/mL.
Turning to “6-((R)-5-{2-[3-(6-methoxy-pyridin-2-yl)-benzylamino]-ethyl}-2-oxo-oxazolidin-3-yl)-4H-pyrido[3,2-b][1,4]oxazin-3-one [Example 31]”, in assay [1], the “MIC for E. faecium A949” value came to 2 µg/mL. Further, the “MIC for M. catarrhalis A894” value in assay [2] is “≦0.016 mg/L”. Moreover, in assay [3], the “MIC for S. aureus ATCC29213” value came to 0.25 µg/mL. The “MIC for S. aureus A798” value in assay [4] stood at 0.25 µg/mL. Besides, the “MIC for A. baumannii T6474” value in assay [5] was 0.5 µg/mL.
One may read the MIC as the lowest concentration found to suppress growth. For the compound `O=C1COc2ccc(N3C[C@H](CCNCc4cccc(-c5cccc(N6CCC(O)C6)n5)c4)OC3=O)nc2N1` (mixture of isomers) [Example 57, 6-[(S)-5-(2-{3-[6-((RS)-3-hydroxy-pyrrolidin-1-yl)-pyridin-2-yl]-benzylamino}-ethyl)-2-oxo-oxazolidin-3-yl]-4H-pyrido[3,2-b][1,4]oxazin-3-one], the MIC in assay [1] came out at 8 µg/mL; in assay [2], 0.25 µg/mL; in assay [3], 2 µg/mL; in assay [4], 1 µg/mL; in assay [5], 2 µg/mL.
Turning to `O=C1COc2ccc(N3C[C@H](CCNCc4cccc(-c5cccc(OC[C@@H]6C[C@@H](O)[C@@H](O)C6)n5)c4)OC3=O)nc2N1` (racemic) [Example 69, 6-[(S)-5-(2-{3-[6-((1rs,3R,4S)-3,4-dihydroxy-cyclopentylmethoxy)-pyridin-2-yl]-benzylamino}-ethyl)-2-oxo-oxazolidin-3-yl]-4H-pyrido[3,2-b][1,4]oxazin-3-one], in assay [1], the “MIC for E. faecium A949” value was determined as 8 µg/mL. For the same compound, the “MIC for M. catarrhalis A894” value in assay [2] amounted to 0.063 µg/mL. The “MIC for S. aureus ATCC29213” value in assay [3] was determined as 1 µg/mL. The “MIC for S. aureus A798” value in assay [4] worked out at 0.25 µg/mL. Moreover, the “MIC for A. baumannii T6474” value in assay [5] is 1 µg/mL.
As for `COc1cccc(-c2cccc(CNCC[C@@H]3CN(c4ccc5c(c4)NC(=O)CS5)C(=O)O3)c2)c1` [Example 1, 6-((R)-5-{2-[(3′-methoxy-biphenyl-3-ylmethyl)-amino]-ethyl}-2-oxo-oxazolidin-3-yl)-4H-benzo[1,4]thiazin-3-one], the minimal inhibitory concentration (MIC) in assay [1] came out at 2 µg/mL (≈ 4.08 µM); in assay [2], 0.031 µg/mL (≈ 0.0633 µM); in assay [3], 0.25 µg/mL (≈ 0.511 µM); in assay [4], 0.25 µg/mL (≈ 0.511 µM); in assay [5], 0.5 µg/mL (≈ 1.02 µM).
For `COc1cc(C#N)cc(-c2cccc(CNCC[C@@H]3CN(c4ccc5c(c4)NC(=O)CS5)C(=O)O3)c2)n1` [Example 2, 2-methoxy-6-[3-({2-[(R)-2-oxo-3-(3-oxo-3,4-dihydro-2H-benzo[1,4]thiazin-6-yl)-oxazolidin-5-yl]-ethylamino}-methyl)-phenyl]-isonicotinonitrile], the MIC is 0.5 µg/mL (≈ 0.97 µM) in assay [1]; at most 0.016 µg/mL in assay [2]; at most 0.016 µg/mL in assay [3]; at most 0.016 µg/mL in assay [4]; 0.25 µg/mL (≈ 0.485 µM) in assay [5].
In the case of `N#Cc1cccc(-c2cccc(CNCC[C@H]3CN(c4ccc5c(c4)NC(=O)CS5)C(=O)O3)c2)c1` [Example 3, 3′-({2-[(S)-2-oxo-3-(3-oxo-3,4-dihydro-2H-benzo[1,4]thiazin-6-yl)-oxazolidin-5-yl]-ethylamino}-methyl)-biphenyl-3-carbonitrile], the minimum inhibitory concentration (MIC) in assay [1] is 0.5 µg/mL (≈ 1.03 µM); in assay [2] it was at most 0.016 µg/mL; in assay [3] it was 0.063 µg/mL (≈ 0.13 µM); in assay [4] it was 0.063 µg/mL (≈ 0.13 µM); in assay [5] it was 0.125 µg/mL (≈ 0.258 µM).
For the compound `COc1cccc(-c2cccc(CNCC[C@H]3CN(c4ccc5c(n4)NC(=O)CO5)C(=O)O3)c2)c1` [Example 4, 6-((S)-5-{2-[(3′-methoxy-biphenyl-3-ylmethyl)-amino]-ethyl}-2-oxo-oxazolidin-3-yl)-4H-pyrido[3,2-b][1,4]oxazin-3-one], the minimum inhibitory concentration (MIC) in assay [1] stood at 4 µg/mL (≈ 8.43 µM); in assay [2], 0.031 µg/mL (≈ 0.0653 µM); in assay [3], 0.25 µg/mL (≈ 0.527 µM); in assay [4] it was 0.25 µg/mL (≈ 0.527 µM); in assay [5], 0.5 µg/mL (≈ 1.05 µM).

The values above are taken from US9527867B2, “Antibacterial biaromatic derivatives” (Actelion Pharmaceuticals Ltd., priority 2013, dated 2016).
